Test results reported in patent US12678511B2, “Peptide and use thereof” (Kansai Medical University Educational Corgoration, priority 2019, dated 2026).
Peptide text beside a SMILES is read from it. * marks the point of attachment. 5FAM = O=C1OC2(c3ccc(O)cc3Oc3cc(O)ccc32)c2ccc(C(=O)*)cc21

Legend:
[1] = system: cancer stroma of the stomach scirrhous carcinoma (HSC58 cells and hMSC); experiment: Absorption into cancer stroma of scirrhous stomach cancer mouse model; assay type: in vivo; conditions: 300 μg intravenous, 60 minutes after injection, FIG. 10B
Source text: Stomach poorly differentiated scirrhous adenocarcinoma, which is an example of a typical scirrhous carcinoma, is classified by visual classification into type 4 stomach cancer, and this type 4 stomach cancer has an extremely poor prognosis, with a five-year survival rate of about at least 4% but not more than 16%. Accordingly, in order to investigate the application of [FAM]-tandem MSCPP106 to the CAF that develop in the scirrhous stroma of cancer other than pancreatic cancer, a scirrhous stomach cancer mouse transplanted model was produced, and the absorption into scirrhous cancer stroma other than pancreatic cancer was investigated. With the exceptions of using human stomach poorly differentiated adenocarcinoma HSC58 cells instead of the BxPC3 cells, and rearing the mouse for 40 days from the time of cell injection, the same method as Example 7 was used to obtain a scirrhous stomach cancer mouse model. The HSC58 cells are a low metastatic human scirrhous stomach cancer cell line. Subsequently, [FAM]-tandem MSCPP106 (300 μg) was injected intravenously into the obtained scirrhous cancer mouse model, and the in-vivo absorption pharmacokinetics of the peptide 60 minutes after the intravenous injection were analyzed by tissue analysis of the freshly dissected specimen of the peptide-administered mouse. […]

[2] = system: cancer stroma (fibrous stroma) of tumor tissue, BxPC3 cells and hMSC transplanted; experiment: Selective absorption in scirrhous pancreatic cancer model mouse (tissue analysis); assay type: in vivo; conditions: 200 μg intravenous, 30 minutes after injection, FIG. 7B, 7C
Source text: A scirrhous pancreatic cancer model mouse having scirrhous carcinoma that forms abundant cancer stroma was produced in accordance with the method disclosed in Reference Document 1 (Saito K et al., “Stromal mesenchymal stem cells facilitate pancreatic cancer progression by regulating specific secretory molecules through mutual cellular interaction.”, Journal of Cancer, Vol. 9, No. 16, pp. 2916-2929, 2018). Specifically, 6-week old NOD/SCID mice (CLEA Japan Inc., Japan) were raised under pathogen-free conditions. A cell mixture containing BxPC3 cells (1×10^5 cells) and hMSC (1×10^5 cells) was injected either subcutaneously or into the abdominal cavity of each mouse. By raising the mice for 6 weeks from the time of cell injection, scirrhous pancreatic cancer model mice were obtained having an abundantly developed cancer stroma that imitates the tissue in a human pancreatic cancer patient (see FIG. 7A).
[FAM]-tandem MSCPP106 (200 μg) was injected intravenously into each obtained scirrhous carcinoma model mouse. Subsequently, the pharmacokinetics of the peptide 30 minutes after the intravenous injection were analyzed by tissue analysis of the freshly dissected specimen of the peptide-administered mouse. FIG. 7B is a series of bright-field images (left) and fluorescent images (right) of various tissues and tumor tissues resected from the scirrhous carcinoma model mouse. […]

## CC(C)C[C@H](NC(=O)[C@H](Cc1c[nH]cn1)NC(=O)[C@H](CCCNC(=N)N)NC(=O)[C@H](Cc1ccccc1)NC(=O)[C@H](CC(C)C)NC(=O)[C@H](CCC(=O)O)NC(=O)[C@H](C)NC(=O)[C@H](CS)NC(=O)[C@H](CCCCN)NC(=O)CNC(=O)[C@H](CC(C)C)NC(=O)[C@H](Cc1c[nH]cn1)NC(=O)[C@H](CCCNC(=N)N)NC(=O)[C@H](Cc1ccccc1)NC(=O)[C@H](CC(C)C)NC(=O)[C@H](CCC(=O)O)NC(=O)[C@H](C)NC(=O)[C@H](CS)NC(=O)[C@H](CCCCN)NC(=O)c1ccc2c(c1)C(=O)OC21c2ccc(O)cc2Oc2cc(O)ccc21)C(=O)O [[FAM]-tandem MSCPP106] (5FAM-KCAELFRHLGKCAELFRHL-OH)
[1]
  absorption into the cancer stroma of the stomach scirrhous carcinoma: strong selective absorption
[2]
  absorption into the cancer stroma (fibrous stroma) inside tumor tissue: strong absorption
